The values below come from patent publication US5814488A (priority 1993, dated 1998).

Converted amounts (≈) assume the structure as drawn. Read-outs that look alike come from different tables or passages of the source.

Series [1] can be described thus: Nephrotoxicity to rat after i.m. administration. The settings on record: gentamicin at 150 MKD and 100 MKD from seventh day.
For series [2] the following is noted: guinea pig, in vivo.
The test system of series [3] is Klebsiella pneumoniae. The series can be described thus: Comparison of MIC and MBC (Tables 5 and 6). In kind it is cell-based. The settings on record: Table 6, 20 strains. The source says: (§1) […]. […] […]
In series [4] the test system is S. aureus. The series can be described thus: Comparison of MIC and MBC (Tables 5 and 6). As to conditions: Table 6, S. aureus, 31 strains. In kind it is cell-based.
Source text: as §1

In series [5] the test system is Shigella. The series can be described thus: Comparison of MIC and MBC (Tables 5 and 6). In kind it is cell-based. As to conditions: Table 6, 10 strains.
Source text: as §1

Series [6] relates to Pseudomonas sp. The series can be described thus: Comparison of MIC and MBC (Tables 5 and 6). In kind it is cell-based. As to conditions: Table 6, Pseudomonas sp., 20 strains.
Source text: as §1

For series [7], the system named is Escherichia coli. Put plainly: Comparison of MIC and MBC (Tables 5 and 6). The series is classed as cell-based. As to conditions: Table 6, 20 strains.
Source text: as §1

For the compound `NCC[C@H](O)C(=O)N[C@@H]1C[C@H](N)[C@@H](O[C@H]2O[C@H](CN)[C@@H](O)[C@H](O)[C@H]2O)[C@H](O)[C@H]1O[C@H]1O[C@H](CO)[C@@H](O)[C@H](N)[C@H]1O` [Amikacin], the dead animals entry in series [1] was “no dead”. The ABR threshold result in series [2] is “increases of ABR threshold were observed”. Moreover, the auditory function entry in series [2] is on record as “nearly all the auditory function of the animals were lost”. Further, the MBC is 1 µg/mL (≈ 1.71 µM) in series [3] (read-out: MBC90); 0.125 to 2 µg/mL (≈ 0.213 to 3.42 µM) in series [3] (read-out: MBC range); 32 µg/mL (≈ 54.6 µM) in series [4] (Staphylococcus aureus, read-out: MBC90); 0.5 µg/mL (≈ 0.854 µM) in series [5] (read-out: MBC90); 0.25 to 1 µg/mL (≈ 0.427 to 1.71 µM) in series [5] (read-out: MBC range); 64 µg/mL (≈ 109 µM) in series [6] (read-out: MBC90). The MBC in series [6] (read-out: MBC range) is 1 to 64 µg/mL (≈ 1.71 to 109 µM); in series [7] (read-out: MBC90), 2 µg/mL (≈ 3.42 µM); in series [7] (read-out: MBC range) it was 0.25 to 8 µg/mL (≈ 0.427 to 13.7 µM). In addition, the MBC range in series [4] (in µg/mL (unit assumed)) was 0.125-128.
